Calls of active or inactive are those of the source. No cut-off for these calls is given here.
Columns and labels:
MDA-MB-231 [1] = assay: Induction of immunogenic cell death in human MDA-MB-231 cells assessed as increase in HMGB1 release at 1 to 4 uM incubated for 24 hrs by ELISA; type: functional, cell-based; conditions: dose 1-4 µM
MDA-MB-231 [2] = assay: Antiproliferative activity against human MDA-MB-231 cells assessed as reduction in tumor spheroid volume at 10 uM incubated for 7 days by propidium iodide staining based fluorescence analysis; type: functional, cell-based; conditions: time 7.0 day
MDA-MB-231 [3] = assay: Induction of DNA damage in human MDA-MB-231 cells assessed as upregulation of gamma-H2AX expression at 1 to 4 uM incubated for 24 hrs by Western blot analysis; type: functional, cell-based; conditions: dose 1-4 µM
Quadruplex DNA [4] = assay: Stabilization of G-quadruplex telomeric DNA in human MDA-MB-231 cells assessed as R-loop formation in mitochondria by measuring increase in S9.6 intensity at 3 uM incubated for 24 hrs by DAPI staining based immunofluorescence microscopic analysis
MDA-MB-231 [5] = assay: Induction of cell cycle arrest in human MDA-MB-231 cells assessed as accumulation of cells at S phase at 4 uM incubated for 24 hrs by RNase/PI staining based flow cytometry (reference value: 6.3 %); type: functional
Quadruplex DNA [6] = assay: Stabilization of G-quadruplex telomeric24 DNA (unknown origin) at 10 uM incubated for 40 mins by replication based ethidium bromide staining based gel electrophoresis; type: nucleic-acid assay
DNA [7] = assay: Binding affinity to DNA (unknown origin) assessed as dissociation constant by Benesi-Hildebrand equation based analysis; type: nucleic-acid assay
MDA-MB-231 [8] = assay: Induction of DNA damage in human MDA-MB-231 cells assessed as upregulation of ATM phosphorylation at 4 uM by Western blot analysis; type: functional, cell-based; conditions: TDE = time-dependent effect
4T1 [9] = assay: Antitumor immunity against mouse 4T1 cells implanted in BALB/c mouse assessed as increase in serum TNF-alpha level at 10 mg/kg,ip every other day for 14 days by ELISA; type: functional, organism-based; conditions: time 14.0 day
Quadruplex DNA [10] = assay: Binding affinity to c-MYC G-quadruplex telomeric DNA (unknown origin) assessed as […] in melting temperature by FRET assay; type: nucleic-acid assay
4T1 [11] = assay: Antitumor immunity against mouse 4T1 cells implanted in BALB/c mouse assessed as increase in serum IL-6 level at 10 mg/kg,ip every other day for 14 days by ELISA; type: functional, organism-based; conditions: time 14.0 day
MDA-MB-231 [12] = assay: Induction of cell cycle arrest in human MDA-MB-231 cells assessed as accumulation of cells at S phase at 1 uM incubated for 24 hrs by RNase/PI staining based flow cytometry (reference value: 6.3 %); type: functional
4T1 [13] = assay: Antitumor activity against mouse 4T1 cells implanted in BALB/c mouse assessed as upregulation of cleaved PARP expression in tumor at 10 mg/kg,ip every other day for 14 days by Western blot analysis; type: functional, organism-based; conditions: time 14.0 day
4T1 [14] = assay: Antitumor activity against mouse 4T1 cells implanted in BALB/c mouse assessed as damage in tumor tissue at 10 mg/kg,ip every other day for 14 days by hematoxylin and eosin staining analysis; type: functional, organism-based; conditions: time 14.0 day
[15] = Cytotoxicity against human MCF-10A cells incubated for 24 hrs by CCK-8 reagent based spectrophotometric analysis; type: toxicity, cell-based
MDA-MB-231 [16] = assay: Antiproliferative activity against human MDA-MB-231 cells assessed as reduction in tumor spheroid volume at 20 to 40 uM incubated for 7 days by propidium iodide staining based fluorescence analysis; type: functional, cell-based; conditions: dose 20-40 µM, time 7.0 day
MDA-MB-231 [17] = assay: Induction of DNA damage in human MDA-MB-231 cells assessed as increase in gamma-H2AX level in nucleus at 3 uM incubated for 24 hrs by DAPI staining based immunofluorescence analysis; type: functional, cell-based
MDA-MB-231 [18] = assay: Induction of cell cycle arrest in human MDA-MB-231 cells assessed as accumulation of cells at G2/M phase at 2 uM incubated for 24 hrs by RNase/PI staining based flow cytometry (reference value: 11.3 %); type: functional
Quadruplex DNA [19] = assay: Binding affinity to G-quadruplex telomeric DNA (unknown origin) assessed as melting temperature by CD spectrophotometric analysis; type: nucleic-acid assay
4T1 [20] = assay: Antitumor activity against mouse 4T1 cells implanted in BALB/c mouse assessed as increase in survival time at 10 mg/kg,ip every other day for 14 days; type: functional, organism-based; conditions: time 14.0 day
MDA-MB-231 [21] = assay: Inhibition of colony formation in human MDA-MB-231 cells at 0.25 uM incubated for 8 days by crystal violet staining based analysis; type: functional, cell-based; conditions: time 8.0 day
Quadruplex DNA [22] = assay: Stabilization of G-quadruplex telomeric DNA in human MDA-MB-231 cells assessed as increase in colocalization of TRF2 and S9.6 formation foci at 3 uM incubated for 24 hrs by DAPI staining based immunofluorescence microscopic analysis; type: cell-based
MDA-MB-231 [23] = assay: Induction of apoptosis in human MDA-MB-231 cells assessed as upregulation of cleaved caspase-3 expression at 1 to 4 uM incubated for 24 hrs by Western blot analysis; type: functional, cell-based; conditions: dose 1-4 µM
MDA-MB-231 [24] = assay: Induction of immunogenic cell death in human MDA-MB-231 cells assessed as increase in CRT expression incubated for 24 hrs by immunofluorescence confocal laser scanning microscopic analysis; type: functional, cell-based
DNA [25] = assay: Binding affinity to Mitochondrial DNA (unknown origin) assessed as increase in melting temperature by CD spectrophotometric analysis; type: nucleic-acid assay
MDA-MB-231 [26] = assay: Induction of DNA damage in human MDA-MB-231 cells assessed as increase in colocalization of TRF2 and gamma-H2AX formation foci in nucleus at 3 uM incubated for 24 hrs by DAPI staining based immunofluorescence analysis; type: functional, cell-based
DNA [27] = assay: Binding affinity to Hairpin DNA (unknown origin) assessed as thermal shift at 10 uM by UV-Visible spectrophotometric analysis; type: nucleic-acid assay
4T1 [28] = assay: Antitumor immunity against mouse 4T1 cells implanted in BALB/c mouse assessed as increase in proportion of CD4+ T cells in tumor at 10 mg/kg,ip every other day for 14 days by immunohistochemistry staining based analysis; type: functional, organism-based; conditions: time 14.0 day
MDA-MB-231 [29] = assay: Induction of cell cycle arrest in human MDA-MB-231 cells assessed as accumulation of cells at G2/M phase at 4 uM incubated for 24 hrs by RNase/PI staining based flow cytometry (reference value: 11.3 %); type: functional
4T1 [30] = assay: Antitumor immunity against mouse 4T1 cells implanted in BALB/c mouse assessed as increase in proportion of CD4+ T cells in tumor at 10 mg/kg,ip every other day for 14 days by flow cytometry; type: functional, organism-based; conditions: time 14.0 day
MDA-MB-231 [31] = assay: Induction of immunogenic cell death in human MDA-MB-231 cells assessed as increase in CRT expression incubated for 24 hrs by Alexa Fluor 647 flow cytometric assay; type: functional, cell-based
MDA-MB-231 [32] = assay: Induction of DNA damage in human MDA-MB-231 cells assessed as upregulation of ATM phosphorylation incubated for 24 hrs by Western blot analysis; type: functional, cell-based
BMDC = assay: Induction of immunogenic cell death in BALB/c mouse BMDC cells co-cultured with mouse 4T1 cells assessed as increase in CD11c+ CD80+ CD86 cells maturation at 2.5 uM incubated for 24 hrs by flow cytometry (reference value: 69.4 %); type: functional
MDA-MB-231 [33] = assay: Induction of cell cycle arrest in human MDA-MB-231 cells assessed as accumulation of cells at S phase at 2 uM incubated for 24 hrs by RNase/PI staining based flow cytometry (reference value: 6.3 %); type: functional
U2OS = assay: Cytotoxicity against human U2OS cells incubated for 24 hrs by CCK-8 reagent based spectrophotometric analysis; type: functional, cell-based

CN(C)CCN(C)c1ccc(-c2nc3ccc(C(F)(F)F)cc3nc2-c2ccc(N(C)CCN(C)C)cc2)cc1
Activity (MDA-MB-231 [1]): Active | Activity (MDA-MB-231 [2]): inactive | Activity (MDA-MB-231 [3]): Active | Activity (Quadruplex DNA [4]): Active | Activity (MDA-MB-231 [5]): 8.6% | Activity (Quadruplex DNA [6]): Active | Kd (DNA [7]): 1400 nM | Activity (MDA-MB-231 [8]): Tde | Activity (4T1 [9]): Active | Activity (Quadruplex DNA [10]): Active | Activity (4T1 [11]): Active | Activity (MDA-MB-231 [12]): 6.4% | Activity (4T1 [13]): Active | Activity (4T1 [14]): Active | IC50 at 24 h [15]: 5.8 µM | Activity (MDA-MB-231 [16]): Active | Activity (MDA-MB-231 [17]): Active | Activity (MDA-MB-231 [18]): 11.5% | Tm (Quadruplex DNA [19]): 66 °C | Activity (4T1 [20]): Active | inhibition (MDA-MB-231 [21]): Active | Activity (Quadruplex DNA [22]): Active | Activity (MDA-MB-231 [23]): Active | Activity (MDA-MB-231 [24]): Dose-Dependent Effect | Activity (DNA [25]): Active | Activity (MDA-MB-231 [26]): Active | Activity (DNA [27]): inactive | Activity (4T1 [28]): Active | Activity (MDA-MB-231 [29]): 20.9% | Activity (4T1 [30]): Active | Activity (MDA-MB-231 [31]): Dose-Dependent Effect | Activity (MDA-MB-231 [32]): Dose-Dependent Effect | Activity (BMDC): 70.1% | Activity (MDA-MB-231 [33]): 6.9% | IC50 (U2OS): 3000 nM

Source: ChEMBL document CHEMBL5550165, “Novel quinoxaline analogs as telomeric G-quadruplex ligands exert antitumor effects related to enhanced immunomodulation” (Eur J Med Chem, 2024)
